In publication PMC5556071, “ATR inhibition facilitates targeting of leukemia dependence on convergent nucleotide biosynthetic pathways” (Nature Communications, 2017):

How the values were obtained:
[1] = test system: dasatinib-resistant p185BCR-ABL Arf–/– pre-B-ALL cells; assay: Apoptosis assay, Annexin V and PI staining; type: cell-based, mouse; conditions: 350 nM 3-AP, 100 nM VE-822, 1 µM dCKi, 72 h
Description: (§1) Apoptosis and cell death were assayed using Annexin V-FITC and PI according to manufacturer’s instructions (FITC Annexin V Apoptosis Detection Kit, BD Sciences, #556570). […]
(§2) Annexin V staining. Cells were treated with the indicated treatments for 24 or 72 h, then collected and washed twice with 1 mL of FACS buffer (2% FBS in PBS). Induction of apoptosis and cell death were assayed by staining the cells with Annexin V-FITC and PI according to manufacturer’s instructions (FITC Annexin V Apoptosis Detection Kit, BD Sciences, #556570).
(§3) FACS analysis. All flow cytometry data were acquired on five-laser LSRII cytometers (BD) for analysis, and analyzed using FlowJo software (Tree Star). […]

[2] = test system: CEM cells; assay: Apoptosis assay, Annexin V and PI staining; type: cell-based, human; conditions: 500 nM 3-AP, 1 µM VE-822, 1 µM dCKi, 24 h
Description: as §1, §2, §3

[3] = test system: CEM cells; assay: Cell cycle analysis of asynchronous cells by flow cytometry (S-phase population, S-phase arrest); type: cell-based, human; conditions: for percentage of cell population in S-phase: asynchronous CEM, 12 h, VE-822 1 µM, DI-82 1 µM
Description: Cell cycle histograms. Cells were plated at a density of 0.5 x 10^6 cells/mL in respective media or drug treated media. Following 24 h incubation, cells were harvested and washed twice with PBS twice before staining with 0.5 ml of propidium iodide (Calbiochem, #P3566, 1 µg/mL) solution containing Ribonuclease A and 0.3% Triton-X 100. The samples were protected from light before acquisition by flow cytometry.
Cell cycle kinetics and cell cycle progression by intracellular detection of DNA-incorporated 5-ethynyl-2-deoxyuridine (EdU). CEM T-ALL cells were plated at a density of 0.5 x 10^6 cells/mL. Cells were pulsed with 10 µM EdU (Invitrogen) for 1 h, washed twice with PBS, and released in fresh media containing 5 µM deoxyribonucleosides, with and without drugs. Cells were collected at different time points following release in fresh media, and then fixed with 4% paraformaldehyde and permeabilized using saponin perm/wash reagent (Invitrogen). Cells were then stained with azide-Alexa Fluor 647 by Click reaction according to manufacturer’s protocol (Invitrogen; Click-iT EdU Flow cytometry kit, #C10634). […]

[4] = test system: CEM cells; assay: Phospho-histone 3 (H3 pS10) staining, flow cytometry; type: cell-based, human; conditions: 500 nM 3-AP, 1 µM VE-822, 1 µM dCKi, 24 h
Description: Phospho-histone 3 staining. Cells were treated with drug combinations of three drugs. 24 h following treatment, cells were fixed and permeabilized with 1% PFA and 1X Perm/wash solution respectively.
Following fixation and permeabilization, cells were stained intracellularly with pH3 Ser10 antibody conjugated to AF647 (Cell signaling, #12230). Cells were then washed with PBS, stained with 0.5 mL of DAPI for DNA content (1 µg/mL in 2% FBS in PBS) before data acquisition. […]
FACS analysis. All flow cytometry data were acquired on five-laser LSRII cytometers (BD) for analysis, and analyzed using FlowJo software (Tree Star). The cell cycle durations were calculated using equations for multiple time-point measurements according to previously published methods (Terry and White, 2006).

[5] = cells harvested from bone marrow of a treated leukemic mouse
[6] = cells prior to inoculation in mice

COc1ccc(-c2nc([C@@H](C)Sc3nc(N)cc(N)n3)c(C)s2)cc1OCCNS(C)(=O)=O [dCKi]
Annexin V+ cells (apoptosis induction) [1, 5]: 11.0%
Annexin V+ cells (apoptosis induction) [1, 6]: 20.4%
Annexin V+ cells (apoptosis induction) [2]: 11.1%
percentage of cell population in S-phase ([3]; + dNTP (10 µM)): 31%
percentage of cell population in S-phase ([3]; – dNTP): 30%
H3 pS10 plot, upper percentage (gate not given) [4]: 2.4%

NC(=S)N/N=C/c1ncccc1N [3-AP]
Annexin V+ cells (apoptosis induction) [1, 5]: 22.0%
Annexin V+ cells (apoptosis induction) [1, 6]: 32.6%
Annexin V+ cells (apoptosis induction) [2]: 31.0%
concentration inducing S-phase arrest ([3]; CEM, 24 h): 0.5 µM
H3 pS10 plot, upper percentage (gate not given) [4]: 1.8%

CNCc1ccc(-c2cc(-c3nc(-c4ccc(S(=O)(=O)C(C)C)cc4)cnc3N)on2)cc1 [VE-822]
Annexin V+ cells (apoptosis induction) [1, 5]: 12.9%
Annexin V+ cells (apoptosis induction) [1, 6]: 20.7%
Annexin V+ cells (apoptosis induction) [2]: 10.3%
percentage of cell population in S-phase ([3]; + dNTP (10 µM)): 37%
percentage of cell population in S-phase ([3]; – dNTP): 42%
H3 pS10 plot, upper percentage (gate not given) [4]: 6.5%
